Data: patent US20190119282A1, “IMIDAZOPYRIDAZINES USEFUL AS INHIBITORS OF THE PAR-2 SIGNALING PATHWAY” (Vertex Pharmaceuticals Incorporated, priority 2013, published 2019)

Assays:
[1] = biological target: T1, PAR2 (HT-29 cells, SLIGKV activation) (Homo sapiens, UniProt P55085); assay: Ca FLIPR TETRA assay, ANTAGONIST mode, stimulation with 8 μM SLIGKV; format: cell-based; settings: HT-29 cells, stimulation with 8 μM SLIGKV
T1 construct: host or cells: HT-29 cells
T1 sequence (P55085 26-397): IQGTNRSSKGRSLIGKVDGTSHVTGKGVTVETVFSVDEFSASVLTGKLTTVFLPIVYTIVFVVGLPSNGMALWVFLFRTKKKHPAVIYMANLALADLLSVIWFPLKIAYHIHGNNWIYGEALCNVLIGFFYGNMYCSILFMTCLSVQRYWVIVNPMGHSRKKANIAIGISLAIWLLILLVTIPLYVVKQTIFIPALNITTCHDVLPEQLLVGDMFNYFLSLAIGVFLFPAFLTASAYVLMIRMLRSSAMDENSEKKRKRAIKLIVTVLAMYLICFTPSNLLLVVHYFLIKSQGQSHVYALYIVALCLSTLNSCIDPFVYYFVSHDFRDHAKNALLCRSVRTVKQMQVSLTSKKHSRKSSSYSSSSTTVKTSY
In short: (§1)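 FLIPR Tetra Ca2+ read-out in HT-29 cells, calcium 5 dye. Compound preincubation 30 min r.t., with an initial read for agonist activity. Final activator levels: SLIGKV 8 μM, thrombin 1 U/mL, trypsin 3.1 U/mL, UTP 0.6 μM.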

[2] = biological target: T2, PAR2 (HT-29 cells, trypsin activation) (Homo sapiens, UniProt P55085); assay: Ca FLIPR TETRA assay, ANTAGONIST mode, stimulation with 3.1 U/mL trypsin; format: cell-based; settings: HT-29 cells, stimulation with 3.1 U/mL trypsin
T2 construct: host or cells: HT-29 cells
T2 sequence (P55085 26-397): T1 sequence (P55085 26-397)
In short: as §1

[3] = test system: Thrombin-stimulated Ca2+ response in HT-29 cells; assay: Ca FLIPR TETRA assay, ANTAGONIST mode, stimulation with 1 U/mL Thrombin; format: cell-based, human; settings: Homo sapiens, HT-29 cells, stimulation with 1 U/mL Thrombin
In short: as §1

[4] = test system: UTP-stimulated Ca2+ response in HT-29 cells; assay: Ca FLIPR TETRA assay, ANTAGONIST mode, stimulation with 0.6 μM UTP; format: cell-based, human; settings: Homo sapiens, HT-29 cells, stimulation with 0.6 μM UTP
In short: as §1

Row | IC50 [1] | IC50 [2] | IC50 [3] | IC50 [4] | IC50 ([1]; antagonist mode) | IC50 ([2]; antagonist mode) | IC50 ([3]; antagonist mode) | IC50 ([4]; antagonist mode) | SMILES
1 |  |  |  |  | 55.5 nM | 110 nM | > 1000 nM | > 1000 nM | CC(F)(F)c1cc(-c2ccc(F)cc2)nn2cc(C(=O)N3CCNC(=O)C3(C)C)nc12 [Compound I-325]
2 |  |  |  |  | 21 nM | 20 nM | > 1000 nM | > 1000 nM | CC(C)c1cc(-c2ccc(F)c(Cl)c2)nn2cc(C(=O)N3CCN(C(=O)[C@H]4C[C@@H](C(=O)O)C4)CC3(C)C)nc12 [Compound I-502]
3 |  |  |  |  | 14.8 nM | 39.8 nM | > 1000 nM | > 1000 nM | Cc1nnc(C(=O)N2CCN(C(=O)c3cn4nc(C5CCC(F)(F)CC5)cc(C(C)(C)C)c4n3)C(C)(C)C2)o1 [Compound I-461]
4 |  |  |  |  | 7.1 nM | 14.2 nM | > 1000 nM | > 1000 nM | CC(C)c1cc(-c2ccc(F)cc2)nn2cc(C(=O)N3CCN(C(=O)c4ccccn4)CC3(C)C)nc12 [Compound I-320]
5 |  |  |  |  | 1.6 nM | 1.5 nM | > 1000 nM | > 1000 nM | Cc1ccc(-c2cc(C(C)(C)C)c3nc(C(=O)N4CCN(C(=O)c5nnc(C)o5)CC4(C)C)cn3n2)cc1 [Compound I-393]
6 |  |  |  |  | 6.4 nM | 10 nM | 710 nM | > 1000 nM | Cc1cccc(-c2cc(C(C)(C)C)c3nc(C(=O)N4CCN(C(=O)c5ncccn5)CC4(C)C)cn3n2)c1 [Compound I-412]
7 |  |  |  |  | 0.6 nM | 0.7 nM | > 1000 nM | > 1000 nM | Cc1cc(C(=O)N2CCN(C(=O)c3cn4nc(-c5ccc(F)c(C)c5)cc(C(C)(C)C)c4n3)C(C)(C)C2)[nH]n1 [Compound I-382]
8 |  |  |  |  | 2.5 nM | 4.3 nM | 6900 nM | 6800 nM | Cc1nc(C(=O)N2CCN(C(=O)c3cn4nc(-c5ccc(F)c(Cl)c5)cc(C(C)C)c4n3)C(C)(C)C2)n[nH]1 [Compound I-483]
9 |  |  |  |  | 11.4 nM | 6.9 nM | > 1000 nM | > 1000 nM | Cc1ccc(-c2cc(C(C)C)c3nc(C(=O)N4CCN(C(=O)c5nc[nH]n5)CC4(C)C)cn3n2)cc1 [Compound I-331]
10 |  |  |  |  | 0.4 nM | 0.7 nM | > 1000 nM | > 1000 nM | Cc1ccc(-c2cc(C(C)(C)C)c3nc(C(=O)N4CCN(C(=O)[C@H]5C[C@@](C)(O)C5)CC4(C)C)cn3n2)cc1 [Compound I-396]
11 |  |  |  |  | 0.9 nM | 1.2 nM | > 1000 nM | > 1000 nM | Cc1ccc(-c2cc(C(C)(C)C)c3nc(C(=O)N4CCN(C(=O)c5ccn[nH]5)CC4(C)C)cn3n2)cc1F [Compound I-424]
12 |  |  |  |  | 1.2 nM | 1.5 nM | > 1000 nM | 460 nM | Cc1nc(C(=O)N2CCN(C(=O)c3cn4nc(-c5ccc(F)c(Br)c5)cc(C(C)(C)C)c4n3)C(C)(C)C2)n[nH]1 [Compound I-504]
13 |  |  |  |  | 5.9 nM | 2.8 nM | > 1000 nM | > 1000 nM | Cc1cc(-c2cc(C(C)(C)C)c3nc(C(=O)N4CCNC(=O)C4(C)C)cn3n2)ccc1F [Compound I-329]
14 |  |  |  |  | 1.8 nM | 2.2 nM | > 1000 nM | > 1000 nM | Cc1ccc(-c2cc(C(C)(C)C)c3nc(C(=O)N4CCN(C(=O)c5ccccn5)CC4(C)C)cn3n2)cc1 [Compound I-391]
15 |  |  |  |  | 1.5 nM | 1.6 nM | > 1000 nM | > 1000 nM | Cc1c[nH]c(C(=O)N2CCN(C(=O)c3cn4nc(-c5ccc(F)cc5)cc(C(C)(C)C)c4n3)C(C)(C)C2)n1 [Compound I-340]
16 |  |  |  |  | 2.5 nM | 3.6 nM | > 1000 nM | > 1000 nM | CC(C)c1cc(-c2ccc(C(F)(F)F)cc2)nn2cc(C(=O)N3CCN(C(=O)c4ccccn4)CC3(C)C)nc12 [Compound I-281]
17 |  |  |  |  | 25.5 nM | 46.5 nM | > 1000 nM | > 1000 nM | Cc1cc(-c2cc(C(C)C)c3nc(C(=O)N4CCN(CC(C)(C)O)C(=O)C4(C)C)cn3n2)ccc1F [Compound I-449]

Further lines, the compound ahead of its results:

Row | SMILES | IC50 [1] | IC50 [2] | IC50 [3] | IC50 [4] | IC50 ([1]; antagonist mode) | IC50 ([2]; antagonist mode) | IC50 ([3]; antagonist mode) | IC50 ([4]; antagonist mode)
18 | CC(C)c1cc(-c2ccc(F)cc2)nn2cc(C(=O)N3CCN(C(=O)C4(O)CCC4)C[C@H]3C)nc12 [Compound I-178] | 4800 nM | 8300 nM | 43000 nM | 14000 nM |  |  |  | 
19 | CC(C)c1cc(-c2ccc(F)cc2)nn2cc(C(=O)N3CCC4(CC3)CNC(=O)O4)nc12 [Compound I-24, 8-[6-(4-fluorophenyl)-8-isopropyl-imidazo[1,2-b]pyridazine-2-carbonyl]-1-oxa-3,8-diazaspiro[4.5]decan-2-one] | 220 nM | 590 nM | > 50000 nM | > 50000 nM |  |  |  | 
20 | CC1(c2cc(-c3ccc(F)cc3)nn3cc(C(=O)N4CCN(C(=O)C5(O)CCOCC5)CC4(C)C)nc23)CC1 [Compound I-31, [6-(4-fluorophenyl)-8-(1-methylcyclopropyl)imidazo[1,2-b]pyridazin-2-yl]-[4-(4-hydroxytetrahydropyran-4-carbonyl)-2,2-dimethyl-piperazin-1-yl]methanone] | 31 nM | 42 nM | 19000 nM | 24000 nM |  |  |  | 
21 | C[C@H]1CN(C(=O)c2cn3nc(-c4ccc(F)cc4)cc(C(F)(F)F)c3n2)CCN1C(=O)[C@@H]1CCCO1 [Compound I-85] | 1600 nM | 10000 nM | 49000 nM | 40000 nM |  |  |  | 
22 | CC(C)c1cc(-c2ccc(F)cc2)nn2cc(C(=O)N3CCN(C(=O)CC4CCOC4)[C@@H](C)C3)nc12 (stereo partly shown) [Compound I-145] | 72 nM | 330 nM | 24000 nM | 23000 nM |  |  |  | 
23 | CC(C)c1cc(-c2ccc(F)cc2)nn2cc(C(=O)N3CCN(C(=O)C4(O)CCOCC4)CC34COC4)nc12 [Compound I-26, [6-(4-fluorophenyl)-8-isopropyl-imidazo[1,2-b]pyridazin-2-yl]-[8-(4-hydroxytetrahydropyran-4-carbonyl)-2-oxa-5,8-diazaspiro[3.5]nonan-5-yl]methanone] | 4400 nM | 9100 nM | 28000 nM | 31000 nM |  |  |  | 
24 | C[C@H]1CN(C(=O)c2cn3nc(-c4ccc(F)cc4)cc(C4CC4)c3n2)CCN1C(=O)[C@H](O)CC(C)(C)C [Compound I-14, (2R)-1-[(2S)-4-[8-Cylopropyl-6-(4-fluorophenyl)imidazo[1,2-b]pyridazine-2-carbonyl]-2-methyl-piperazin-1-yl]-2-hydroxy-4,4-dimethyl-pentan-1-one] | 0.5 nM | 0.8 nM | > 5000 nM | > 5000 nM |  |  |  | 
25 | CCc1cc(-c2ccc(F)cc2)nn2cc(C(=O)N3CCN(C(=O)[C@H](O)C(C)(C)C)[C@@H](C)C3)nc12 [Compound I-172] | 22 nM | 330 nM | 15000 nM | 15000 nM |  |  |  | 
26 | CC(C)(C)c1cc(-c2ccc(F)cc2)nn2cc(C(=O)N3CCN(c4cscn4)C(=O)C3(C)C)nc12 [Compound I-266] |  |  |  |  | 0.6 nM | 1 nM | > 100 nM | > 1000 nM
27 | CC(C)c1cc(-c2ccc(F)cc2)nn2cc(C(=O)N3CCN(C(=O)C4(O)CCC4)C[C@@H]3C)nc12 [Compound I-28, [6-(4-fluorophenyl)-8-isopropyl-imidazo[1,2-b]pyridazin-2-yl]-[(2S)-4-(1-hydroxycyclobutanecarbonyl)-2-methyl-piperazin-1-yl]methanone] | 8800 nM | 15000 nM | 33000 nM | 38000 nM |  |  |  | 
28 | CC1(c2cc(-c3ccc(F)cc3)nn3cc(C(=O)N4CCN(C(=O)C5(O)CCC5)CC4(C)C)nc23)CC1 [Compound I-33, [6-(4-fluorophenyl)-8-(1-methylcyclopropyl)imidazo[1,2-b]pyridazin-2-yl]-[4-(1-hydroxycyclobutanecarbonyl)-2,2-dimethyl-piperazin-1-yl]methanone] | 45 nM | 14 nM | > 50000 nM | > 50000 nM |  |  |  | 
29 | Cc1nnc(C(=O)N2CCN(C(=O)c3cn4nc(-c5ccc(C(F)(F)F)cc5)cc(C(C)C)c4n3)C(C)(C)C2)o1 [Compound I-280] |  |  |  |  | 9.6 nM | 6 nM | > 1000 nM | > 1000 nM
30 | CCc1cc(-c2ccc(F)cc2)nn2cc(C(=O)N3CCN(C(=O)OC(C)(C)C)[C@@H](C)C3)nc12 [Compound I-3, tert-Butyl (2S)-4-[8-ethyl-6-(4-fluorophenyl)imidazo[1,2-b]pyridazine-2-carbonyl]-2-methyl-piperazine-1-carboxylate] | 160 nM | 825 nM | 18000 nM | 16000 nM |  |  |  | 
31 | CCc1cc(-c2ccc(F)cc2)nn2cc(C(=O)N3CCN(C(=O)[C@H](O)CC4CC4)CC3(C)C)nc12 [Compound I-173] | 8 nM | 13 nM | 20000 nM | 23000 nM |  |  |  | 
